# Laboratory results taken from article PMC10669426, “Exploring the Use of Hydroxytyrosol and Some of Its Esters in Food-Grade Nanoemulsions: Establishing Connection between Structure and Efficiency” (Antioxidants, 2023).
# Assay: Shake-flask partition in binary stripped fish oil–water mixtures in the absence of emulsifier
# Assay type: physicochemical
# Conditions: binary 1:9 (v:v) fish oil:water mixture, average of four runs, 25 °C
# Protocol: The partition constants, PW^O, of HT and some of its esters were determined, by employing the shake-flask method, in binary stripped fish oil–water mixtures in the absence of emulsifier. Sets of four 1:9 (v:v, oil:water, total volume = 10 mL) binary mixtures, each one containing the same AO, were prepared by stirring the mixture at high speed for 1 min. HT and the C1–C3 derivatives were dissolved in the buffered aqueous solution; meanwhile, those with longer alkyl chains were dissolved in the fish oil phase. The final stoichiometric concentration of AOs was 3.5 mM in all samples. Mixtures were stirred at high speed for 2 min and then equilibrated at T = (25 ± 1) °C for at least 24 h in the dark. The resulting two phases were then divided by centrifugation. Concentrations of the AOs in each phase were estimated by interpolation in previously prepared calibration curves by employing UV-Vis (λ = 285 nm). Further details on the method have been published elsewhere.
# The reported PW^O values in Table 2 are average of the four runs. The PW^O values for the more hydrophobic antioxidants are not reported because of the high uncertainty in their values, as the ratio of percentages may be susceptible to small errors in the determination of the values of the AO concentrations in the aqueous phase. In any case, PW^O values higher than 150 indicate that AOs are, essentially, water insoluble.
row,Structure (SMILES),partition constant PW^O
1,CCC(=O)OCCc1ccc(O)c(O)c1 [C3],7.8 ± 0.4
2,"OCCc1ccc(O)c(O)c1 [HT, Hydroxytyrosol]",0.3 ± 0.1

# Same assay, conditions: binary 1:9 (v:v) fish oil:water mixture, no emulsifier, 25 °C, pH 3.0 buffer
Structure (SMILES),"%AOO, percentage present in the oil phase","%AOW, percentage present in the aqueous phase"
CCC(=O)OCCc1ccc(O)c(O)c1 [C3],46.37%,53.63%
"OCCc1ccc(O)c(O)c1 [HT, Hydroxytyrosol]",3.01%,96.99%

# Assay: Distribution and effective interfacial concentrations of AOs in fish oil nanoemulsions, calculated from partition constants
# Assay type: physicochemical
# Conditions: at any ΦI value
# Description: The values of the partition constants PO^I and PW^I in Table 3 were used to estimate the distribution of the AOs in the intact nanoemulsions. Details of the calculations and the equations employed are not given here to keep focus and for the sake of clarity, but can be easily found elsewhere.
# In Equation (5), nT represents the total number of moles of the antioxidant, VT the total volume of the emulsion, and ΦI is the interfacial volume fraction. To distinguish between the stoichiometric and effective concentrations, we employed square brackets, [ ], defined as molarity of total emulsion volume, and parenthesis, ( ), defined as molarity of the interfacial region, respectively. The reader must be aware that VI, is the sum of all of the interfacial volumes of all of the aggregates present in the system, and that it matches that of the total volume of the added surfactant. Emulsion droplets and other association colloids as micelles present in the system are broken and reformed at rates much faster than those of the relevant chemical reactions, allowing rapid transfer of materials between them. That is, they are in dynamic equilibrium. (5) (AOI)=nI/VI=nT(%AOI)/VI=nT/VT(%AOI)/VI/VT=[AOT](%AOI)/ΦI
row,Structure (SMILES),order of the percentages of AOs in the interfacial region (%AOI)
1,CCC(=O)OCCc1ccc(O)c(O)c1 [C3],%HTI < %C3I < %C16I < %C12I < %C10I < %C8I
2,CCCCCCCC(=O)OCCc1ccc(O)c(O)c1 [C8],%HTI < %C3I < %C16I < %C12I < %C10I < %C8I
3,CCCCCCCCCCCC(=O)OCCc1ccc(O)c(O)c1 [C12],%HTI < %C3I < %C16I < %C12I < %C10I < %C8I
4,CCCCCCCCCCCCCCCC(=O)OCCc1ccc(O)c(O)c1 [C16],%HTI < %C3I < %C16I < %C12I < %C10I < %C8I
5,"OCCc1ccc(O)c(O)c1 [HT, Hydroxytyrosol]",%HTI < %C3I < %C16I < %C12I < %C10I < %C8I

# Same assay, conditions: lowest surfactant fraction ΦI = 0.005, constant o/w ratio
row,Structure (SMILES),effective interfacial concentration relative to the stoichiometric concentration
1,CCCCCCCC(=O)OCCc1ccc(O)c(O)c1 [C8],about 100 times

# Assay: DPPH radical assay, EC50 values at different reaction times
# Assay type: biochemical
# Conditions: t = 5 min, T = 25 °C
# Protocol: To check if the same insignificant changes hold for HT derivatives, we further tested the point by determining the EC50 values for the different HT derivatives. A UV-Vis Powerwave XS Microplate Reader (96-well microplate, Bio-Tek Instruments, Inc., Winooski, VT, USA) was employed to monitor the loss of DPPH^● (from reaction with each AO) at T = 25.0 ± 0.1 °C. The absorbance of each well was recorded (λ = 515 nm) at 60 s intervals for a 4000 s period, Figure 3.
# Each set of experiments was performed in triplicate and, in some instances, in quadruplicate, and the reported EC50 values in Table 1 (determined from data in Figure 3) are the average of these repetitions.
row,Structure (SMILES),EC50
1,O=COCCc1ccc(O)c(O)c1 [C1],0.338 ± 0.005 mol AO/mol DPPH^●
2,CCC(=O)OCCc1ccc(O)c(O)c1 [C3],0.345 ± 0.004 mol AO/mol DPPH^●
3,CCCCCCCC(=O)OCCc1ccc(O)c(O)c1 [C8],0.295 ± 0.005 mol AO/mol DPPH^●
4,CCCCCCCCCCCC(=O)OCCc1ccc(O)c(O)c1 [C12],0.345 ± 0.005 mol AO/mol DPPH^●
5,CCCCCCCCCCCCCCCC(=O)OCCc1ccc(O)c(O)c1 [C16],0.331 ± 0.011 mol AO/mol DPPH^●
6,"OCCc1ccc(O)c(O)c1 [HT, Hydroxytyrosol]",0.323 ± 0.005 mol AO/mol DPPH^●

# Same assay, conditions: t = 15 min, T = 25 °C
row,Structure (SMILES),EC50
1,O=COCCc1ccc(O)c(O)c1 [C1],0.296 ± 0.003 mol AO/mol DPPH^●
2,CCC(=O)OCCc1ccc(O)c(O)c1 [C3],0.299 ± 0.002 mol AO/mol DPPH^●
3,CCCCCCCC(=O)OCCc1ccc(O)c(O)c1 [C8],0.265 ± 0.005 mol AO/mol DPPH^●
4,CCCCCCCCCCCC(=O)OCCc1ccc(O)c(O)c1 [C12],0.319 ± 0.004 mol AO/mol DPPH^●
5,CCCCCCCCCCCCCCCC(=O)OCCc1ccc(O)c(O)c1 [C16],0.305 ± 0.006 mol AO/mol DPPH^●
6,"OCCc1ccc(O)c(O)c1 [HT, Hydroxytyrosol]",0.287 ± 0.004 mol AO/mol DPPH^●

# Same assay, conditions: t = 30 min, T = 25 °C
row,Structure (SMILES),EC50
1,O=COCCc1ccc(O)c(O)c1 [C1],0.288 ± 0.003 mol AO/mol DPPH^●
2,CCC(=O)OCCc1ccc(O)c(O)c1 [C3],0.289 ± 0.005 mol AO/mol DPPH^●
3,CCCCCCCC(=O)OCCc1ccc(O)c(O)c1 [C8],0.256 ± 0.007 mol AO/mol DPPH^●
4,CCCCCCCCCCCC(=O)OCCc1ccc(O)c(O)c1 [C12],0.309 ± 0.011 mol AO/mol DPPH^●
5,CCCCCCCCCCCCCCCC(=O)OCCc1ccc(O)c(O)c1 [C16],0.302 ± 0.011 mol AO/mol DPPH^●
6,"OCCc1ccc(O)c(O)c1 [HT, Hydroxytyrosol]",0.279 ± 0.004 mol AO/mol DPPH^●

# Same assay, conditions: t = 60 min, T = 25 °C
row,Structure (SMILES),EC50
1,O=COCCc1ccc(O)c(O)c1 [C1],0.277 ± 0.003 mol AO/mol DPPH^●
2,CCC(=O)OCCc1ccc(O)c(O)c1 [C3],0.280 ± 0.003 mol AO/mol DPPH^●
3,CCCCCCCC(=O)OCCc1ccc(O)c(O)c1 [C8],0.239 ± 0.003 mol AO/mol DPPH^●
4,CCCCCCCCCCCC(=O)OCCc1ccc(O)c(O)c1 [C12],0.294 ± 0.006 mol AO/mol DPPH^●
5,CCCCCCCCCCCCCCCC(=O)OCCc1ccc(O)c(O)c1 [C16],0.298 ± 0.007 mol AO/mol DPPH^●
6,"OCCc1ccc(O)c(O)c1 [HT, Hydroxytyrosol]",0.258 ± 0.004 mol AO/mol DPPH^●

# Assay: Chemical kinetic method (pseudophase model) with the probe 16-ArN2^+ in intact fish oil-in-water nanoemulsions
# Assay type: physicochemical
# Conditions: intact 1:9 fish oil-in-water nanoemulsions, T = 25 °C
# Protocol: The distribution of HT and its derivatives was determined by using a chemical kinetic method, as have been published elsewhere based on the reaction between a chemical probe (16-ArN2^+, specifically localized at the interface) and the AOs. The changes detected in the observed rate constant for this reaction (kobs) at different surfactant volume fractions (ΦI) were evaluated according to the pseudophase kinetic model developed by Romsted and Bravo-Díaz and explained in detail elsewhere.
# The chemical probe 16-ArN2^+ reacts, virtually, with any antioxidant as described elsewhere and the reaction can be monitored by UV-Vis with the aid of a specially developed derivatization protocol. […] The absorbance of the resulting azo dye was monitored at λ = 572 nm once diluted with a 50:50 (v:v) BuOH:EtOH mixture. This dilution step is critical and its purpose is to obtain an optically transparent, homogeneous solution. Details of the complete procedure have been published elsewhere.
# Succinctly, after initiating the reaction between 16-ArN2^+ and the antioxidants in the intact emulsion, constant volumes (200 µL) of the nanoemulsion were extracted at given time periods and rapidly added to numbered glass tubes to quench the reaction. Because the quenching reaction is much faster than the reaction between 16-ArN2^+ and the antioxidants, the absorbance of the formed azo dye is proportional to the concentration of unreacted 16-ArN2^+ so that the decrease in absorbance of the azo dye with time can be used to determine kobs. For this purpose, we fitted the experimental (absorbance, time) pairs of data to the integrated first-order rate equation by using a non-linear least squares method provided by a commercial computer program. Figure 4 illustrates the typical variations of the absorbance of the azo dye versus time as determined in the intact fish oil-in-water nanoemulsions. The solid lines are the fitting curves to the integrated and linearized first-order equations.
# The relationships between kobs and the partition constants of the AOs between the oil-interfacial, PO^I, and aqueous-interfacial, PW^I, regions are given by Equations (1)–(3), and the partition constants were estimated by fitting the variations of 1/kobs, with ΦI at constant stoichiometric concentration of the antioxidant ([AOT] = 2.5 × 10^−3 M), ΦW (ΦW = 0.9) and ΦO (ΦO = 0.1) as explained in detail elsewhere.
# The experimental (kobs, ΦI) pairs of data were fitted to the equations derived from the pseudophase model Equations (1)–(3), which hold for very hydrophilic (Equation (1)) and very hydrophobic (Equation (2)) antioxidants and for those of intermediate hydrophobicity (3).
Structure (SMILES),partition constant PO^I (oil-interfacial),partition constant PW^I (aqueous-interfacial)
CCC(=O)OCCc1ccc(O)c(O)c1 [C3],28 ± 3,229 ± 40
CCCCCCCC(=O)OCCc1ccc(O)c(O)c1 [C8],22 ± 2,–
CCCCCCCCCCCC(=O)OCCc1ccc(O)c(O)c1 [C12],16 ± 2,–
CCCCCCCCCCCCCCCC(=O)OCCc1ccc(O)c(O)c1 [C16],13 ± 2,–
"OCCc1ccc(O)c(O)c1 [HT, Hydroxytyrosol]",–,71 ± 12

# Same assay, conditions: intact 1:9 fish oil-in-water nanoemulsions, T = 25 °C; values given as 10^2 kI
row,Structure (SMILES),"10^2 kI, interfacial rate constant for the reaction between 16ArN2^+ and AO"
1,CCC(=O)OCCc1ccc(O)c(O)c1 [C3],27.7 ± 4.7 M^−1 s^−1
2,CCCCCCCC(=O)OCCc1ccc(O)c(O)c1 [C8],21.0 ± 0.3 M^−1 s^−1
3,CCCCCCCCCCCC(=O)OCCc1ccc(O)c(O)c1 [C12],25.3 ± 0.7 M^−1 s^−1
4,CCCCCCCCCCCCCCCC(=O)OCCc1ccc(O)c(O)c1 [C16],25.0 ± 0.8 M^−1 s^−1
5,"OCCc1ccc(O)c(O)c1 [HT, Hydroxytyrosol]",14.2 ± 0.1 M^−1 s^−1

# Assay: Relative oxidative stability of fish oil nanoemulsions, formation of conjugated dienes (AOCS Ti-1a-64)
# Conditions: 1:9 fish nanoemulsions, T = 25 °C, [AOT] = 0.1 mM
# Description: Accelerated tests are commonly used to assess the relative stability of emulsions because of their reproducibility. In the present work, we used the AOCS official standard method Ti-1a-64 to determine the relative antioxidant efficiency of the antioxidants under a set of standardized conditions. For this purpose, we measured the formation of conjugated dienes (CD) with time following the procedure described in detail elsewhere. […] We, however, controlled their stability visually; no phase separation was detected.
# We estimated the relative oxidative stability of fish oil nanoemulsions by controlling the extent of lipid oxidation under a set of standardized conditions. For this purpose, we measured the level of oxidation on the basis of the production of conjugated dienes (CD) with time. The method, identical to the AOCS official standard method Ti-1a-64, is rather sensitive and reproducible and suitable for monitoring the early stages of lipid oxidation. Figure 12A is illustrative of a typical oxidation kinetics experiment and where one can observe a constant small increase (lag time) up to a sudden increase in the formation of conjugated dienes (CD). The relative efficiency was assessed by determining the necessary time to reach an increase in CD production of 0.5%. Further details on the experimental procedure and calculations can be found elsewhere.
row,Structure (SMILES),antioxidant efficiency order (time needed to reach 0.5% conjugated dienes)
1,CCC(=O)OCCc1ccc(O)c(O)c1 [C3],C8 > C10 > C16 > C3 > HT >> control
2,CCCCCCCC(=O)OCCc1ccc(O)c(O)c1 [C8],C8 > C10 > C16 > C3 > HT >> control
3,CCCCCCCCCCCCCCCC(=O)OCCc1ccc(O)c(O)c1 [C16],C8 > C10 > C16 > C3 > HT >> control
4,"OCCc1ccc(O)c(O)c1 [HT, Hydroxytyrosol]",C8 > C10 > C16 > C3 > HT >> control

# Same assay, conditions: increase in ΦI of ∼8 times
row,Structure (SMILES),decrease in efficiency on an increase in ΦI of ∼8 times
1,CCCCCCCC(=O)OCCc1ccc(O)c(O)c1 [C8],~1.5 times

# Same assay, conditions: ΦI = 0.005
row,Structure (SMILES),increase in the oxidative stability of nanoemulsion compared with the control
1,CCCCCCCC(=O)OCCc1ccc(O)c(O)c1 [C8],~10 times
